Our source for the EC50 values is patent US20250221966A1, “RXFP1 AGONISTS” (BRISTOL-MYERS SQUIBB COMPANY, priority 2021, published 2025).

This assay addresses T1, human RXFP1 (Homo sapiens, UniProt Q9HBX9).
T1 construct: expressed in transfected cells
T1 sequence (Q9HBX9 1-757): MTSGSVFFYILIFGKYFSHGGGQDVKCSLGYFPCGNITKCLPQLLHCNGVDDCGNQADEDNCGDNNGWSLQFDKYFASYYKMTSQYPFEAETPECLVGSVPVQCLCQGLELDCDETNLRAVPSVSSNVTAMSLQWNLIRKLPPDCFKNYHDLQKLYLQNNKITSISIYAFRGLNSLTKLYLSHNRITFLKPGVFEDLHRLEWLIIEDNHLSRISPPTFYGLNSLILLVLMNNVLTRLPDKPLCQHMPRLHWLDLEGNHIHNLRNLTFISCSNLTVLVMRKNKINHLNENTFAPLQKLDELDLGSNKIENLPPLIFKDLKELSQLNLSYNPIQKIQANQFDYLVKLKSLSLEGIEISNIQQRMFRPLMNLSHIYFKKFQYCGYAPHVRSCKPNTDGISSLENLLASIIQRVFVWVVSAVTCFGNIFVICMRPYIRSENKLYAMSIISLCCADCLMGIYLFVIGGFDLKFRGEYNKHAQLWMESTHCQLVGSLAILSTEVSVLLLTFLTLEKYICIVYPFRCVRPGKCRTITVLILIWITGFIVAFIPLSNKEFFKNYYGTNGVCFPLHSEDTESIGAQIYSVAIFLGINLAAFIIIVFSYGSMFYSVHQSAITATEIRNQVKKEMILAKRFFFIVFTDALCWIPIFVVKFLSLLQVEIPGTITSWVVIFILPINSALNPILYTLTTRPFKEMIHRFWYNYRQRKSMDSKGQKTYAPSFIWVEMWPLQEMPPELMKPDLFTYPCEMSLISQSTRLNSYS
Nature of the assay: RXFP1 cAMP assay (hRXFP1 HEK293 cAMP assay, HTRF). The format is cell-based. The settings on record: HEK293 cells stably expressing human RXFP1, 30 min at room temperature, read-out: cAMP hRXFP1 HEK293 Assay EC50. Put shortly: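 HEK293 cells stably expressing human RXFP1 were suspended in HBSS (Ca/Mg) with 20 mM HEPES, 0.05% BSA and 0.5 mM IBMX, then treated with compounds (0.010 nM–50 μM, 2% DMSO final) for 30 min at room temperature. Intracellular cAMP was measured by HTRF, and potency was derived from 4-parameter logistic fits.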
For orientation: Changes in cAMP serve as a functional read-out for many G protein-coupled receptors.
A word on the EC50: it is the concentration at which the effect is half-maximal. In the case of `COc1c(F)cc(-c2ccc3c(c2)S(=O)(=O)N(C(C)(C)C)C3)cc1C(=O)N[C@H]1[C@@H](C(=O)N[C@H](C)C2(C)CC2)[C@H]2CC[C@@H]1/C2=C\C1CC1` [compound 916], the EC50 was 3.6 nM. Take `COc1c(F)cc(C2=NOC3CC(O)(C(F)(F)F)CC23)cc1C(=O)N[C@H]1[C@@H](C(=O)N[C@H](C)C2(C)CC2)[C@H]2CC[C@@H]1/C2=C\c1cnc(C(F)(F)F)s1` (stereo partly drawn) [compound 917]: the EC50 is 1.3 nM. As to `COc1c(F)cc(C2=NOC3CC(CO)CC23)cc1C(=O)N[C@H]1[C@@H](C(=O)Nc2ccc(F)c(C(F)(F)F)c2)[C@H]2CC[C@@H]1/C2=C\C1CC(F)(F)C1` (stereo partly drawn) [compound 918], the EC50 is 5.5 nM.

As for `COc1ccc(-c2ccc(C(=O)O)cc2F)cc1C(=O)N[C@H]1[C@@H](C(=O)Nc2ccc(F)c(C(F)(F)F)c2)[C@H]2CC[C@@H]1/C2=C\C1CC(F)(F)C1` [compound 919], the EC50 was found to be 3.6 nM. `COc1ccc(-c2cc([C@H](O)C(F)(F)F)ccc2F)cc1C(=O)N[C@H]1[C@@H](C(=O)Nc2ccc(F)c(C(F)(F)F)c2)[C@H]2CC[C@@H]1/C2=C\C1CCCC1` [compound 920]: the EC50 worked out at 2.4 nM.

Turning to `COc1ccc(-c2cc([C@H](O)C(F)(F)F)ccc2F)cc1C(=O)N[C@H]1[C@@H](C(=O)Nc2ccc(F)c(C(F)(F)F)c2)[C@H]2CC[C@@H]1/C2=C\C1CCC1` [compound 921], the EC50 was 8.2 nM. Take `COc1ccc(-c2cc([C@H](OC(=O)NC3CCC3)C(F)(F)F)ccc2F)cc1C(=O)N[C@@H]1C2CCC(/C2=C/C2CCCC2)[C@@H]1C(=O)Nc1ccc(F)c(C(F)(F)F)c1` (stereo partly drawn) [compound 922]: the EC50 was 2.2 nM.

Consider `COc1ccc(-c2cc([C@H](OC(=O)NC3CCC3)C(F)(F)F)ccc2F)cc1C(=O)N[C@@H]1C2CCC(/C2=C/CCC(F)(F)F)[C@@H]1C(=O)Nc1ccc(F)c(C(F)(F)F)c1` (stereo partly drawn) [compound 923], for which the EC50 amounted to 4.7 nM. For the compound `COc1ccc(-c2cc([C@H](OC(=O)NC3CCC3)C(F)(F)F)ccc2F)cc1C(=O)N[C@@H]1C2CCC(/C2=C/C2CCC2)[C@@H]1C(=O)Nc1ccc(F)c(C(F)(F)F)c1` (stereo partly drawn) [compound 924], the EC50 is 5.7 nM. On to `COc1ccc(-c2cc([C@H](OC(=O)NC3CCC3)C(F)(F)F)ccc2F)cc1C(=O)N[C@@H]1C2CCC(/C2=C/C(C)C)[C@@H]1C(=O)Nc1ccc(F)c(C(F)(F)F)c1` (stereo partly drawn) [compound 925], for which the EC50 amounted to 5.2 nM. As to `COc1ccc(-c2cc([C@H](OC(=O)NC3CCC3)C(F)(F)F)ccc2F)cc1C(=O)N[C@@H]1C2CCC(/C2=C/CC(C)C)[C@@H]1C(=O)Nc1ccc(F)c(C(F)(F)F)c1` (stereo partly drawn) [compound 926], the EC50 was determined as 2.8 nM.

In the case of `COc1ccc(-c2cc([C@H](OC(=O)NC3CC3)C(F)(F)F)ccc2F)cc1C(=O)N[C@H]1[C@@H](C(=O)Nc2ccc(F)c(C(F)(F)F)c2)[C@H]2CC[C@@H]1/C2=C\C1CCCC1` [compound 927], the half-maximal effective concentration (EC50) was 0.4 nM. Take `COc1ccc(-c2cc([C@H](OC(=O)NC3CC3)C(F)(F)F)ccc2F)cc1C(=O)N[C@H]1[C@@H](C(=O)Nc2ccc(F)c(C(F)(F)F)c2)[C@H]2CC[C@@H]1/C2=C\CCC(F)(F)F` [compound 928]: the half-maximal effective concentration (EC50) was determined as 1.4 nM.

Take `COc1ccc(-c2cc([C@H](OC(=O)NC3CC3)C(F)(F)F)ccc2F)cc1C(=O)N[C@H]1[C@@H](C(=O)Nc2ccc(F)c(C(F)(F)F)c2)[C@H]2CC[C@@H]1/C2=C\CC(C)C` [compound 929]: the EC50 turned out to be 1.6 nM.

Regarding `COc1ccc(-c2cc([C@H](OC(=O)NC3CC3)C(F)(F)F)ccc2F)cc1C(=O)N[C@H]1[C@@H](C(=O)Nc2ccc(F)c(C(F)(F)F)c2)[C@H]2CC[C@@H]1/C2=C\C(C)C` [compound 930], the EC50 stood at 1.1 nM. The same measure for `COc1ccc(-c2cc([C@H](OC(=O)NC3CC3)C(F)(F)F)ccc2F)cc1C(=O)N[C@H]1[C@@H](C(=O)Nc2ccc(F)c(C(F)(F)F)c2)[C@H]2CC[C@@H]1/C2=C\C1CC(F)(F)C1` [compound 931]: 2.5 nM; for `COc1ccc(-c2cc([C@H](OC(=O)NC3CCC3)C(F)(F)F)ccc2F)cc1C(=O)N[C@H]1[C@@H](C(=O)Nc2ccc(F)c(C(F)(F)F)c2)[C@H]2CC[C@@H]1/C2=C\C[C@@H](O)C(F)(F)F` [compound 932]: 3.9 nM; for `COc1ccc(-c2cc(C(OC(=O)NC(C)(C)C)C(=O)O)ccc2F)cc1C(=O)N[C@H]1[C@@H](C(=O)Nc2ccc(F)c(C(F)(F)F)c2)[C@H]2CC[C@@H]1/C2=C\C1CCCC1` (stereo partly drawn) [compound 933]: 0.9 nM. Take `COc1ccc(-c2cc(C(OC(=O)NC(C)(C)C)C(=O)O)ccc2F)cc1C(=O)N[C@H]1[C@@H](C(=O)Nc2ccc(F)c(C(F)(F)F)c2)[C@H]2CC[C@@H]1/C2=C\CCC(F)(F)F` (stereo partly drawn) [compound 934]: the EC50 came to 1.4 nM. Take `COc1ccc(-c2cc(C(OC(=O)NC(C)(C)C)C(=O)O)ccc2F)cc1C(=O)N[C@H]1[C@@H](C(=O)Nc2ccc(F)c(C(F)(F)F)c2)[C@H]2CC[C@@H]1/C2=C\C1CC(F)(F)C1` (stereo partly drawn) [compound 935]: the concentration giving a half-maximal response (EC50) came out at 2.5 nM.

On to `COc1ccc(-c2cc(C(OC(=O)NC3CCC3)C(=O)O)ccc2F)cc1C(=O)N[C@H]1[C@@H](C(=O)Nc2ccc(F)c(C(F)(F)F)c2)[C@H]2CC[C@@H]1/C2=C\C1CCCC1` (stereo partly drawn) [compound 936], for which the EC50 stood at 1.4 nM.

Turning to `COc1ccc(-c2cc([C@H](OC(=O)NC3CCC3)C(=O)O)ccc2F)cc1C(=O)N[C@H]1[C@@H](C(=O)Nc2ccc(F)c(C(F)(F)F)c2)[C@H]2CC[C@@H]1/C2=C\CC(C)C` [compound 937], the EC50 was 5.8 nM. Next, `COc1ccc(-c2cc(C(OC(=O)NC3CCC3)C(=O)O)ccc2F)cc1C(=O)N[C@H]1[C@@H](C(=O)Nc2ccc(F)c(C(F)(F)F)c2)[C@H]2CC[C@@H]1/C2=C\C(C)C` (stereo partly drawn) [compound 938]: 1.7 nM; `COc1ccc(-c2cc(C(OC(=O)NC3CCC3)C(=O)O)ccc2F)cc1C(=O)N[C@H]1[C@@H](C(=O)Nc2ccc(F)c(C(F)(F)F)c2)[C@H]2CC[C@@H]1/C2=C\C1CC(F)(F)C1` (stereo partly drawn) [compound 939]: 0.6 nM; `COc1ccc(-c2cc(C(NC(=O)C3CCOCC3)C(=O)O)ccc2F)cc1C(=O)N[C@H]1[C@@H](C(=O)Nc2ccc(F)c(C(F)(F)F)c2)[C@H]2CC[C@@H]1/C2=C\CCC(F)(F)F` (stereo partly drawn) [compound 940]: 4.1 nM.

As for `COc1ccc(-c2cc(C(NC(=O)C3CCOCC3)C(=O)O)ccc2F)cc1C(=O)N[C@H]1[C@@H](C(=O)Nc2ccc(F)c(C(F)(F)F)c2)[C@H]2CC[C@@H]1/C2=C\CC(C)C` (stereo partly drawn) [compound 941], the EC50 came out at 1.2 nM. Next, `COc1ccc(-c2cc(C(NC(=O)C3CCOCC3)C(=O)O)ccc2F)cc1C(=O)N[C@H]1[C@@H](C(=O)Nc2ccc(F)c(C(F)(F)F)c2)[C@H]2CC[C@@H]1/C2=C\C(C)C` (stereo partly drawn) [compound 942]: 1.3 nM; `COc1ccc(-c2cc(C(NC(=O)C3CCOCC3)C(=O)O)ccc2F)cc1C(=O)N[C@H]1[C@@H](C(=O)Nc2ccc(F)c(C(F)(F)F)c2)[C@H]2CC[C@@H]1/C2=C\C1CC(F)(F)C1` (stereo partly drawn) [compound 943]: 1.7 nM. Regarding `COc1ccc(-c2cc(C(CC(F)(F)F)NC(=O)C3CCOCC3)ccc2F)cc1C(=O)N[C@H]1[C@@H](C(=O)Nc2ccc(F)c(C(F)(F)F)c2)[C@H]2CC[C@@H]1/C2=C\C1CCCC1` (stereo partly drawn) [compound 944], the EC50 came out at 1.9 nM. With `COc1ccc(-c2cc(C3=NOC(C(=O)O)C3)ccc2F)cc1C(=O)N[C@H]1[C@@H](C(=O)Nc2ccc(F)c(C(F)(F)F)c2)[C@H]2CC[C@@H]1/C2=C\C1CCCC1` (stereo partly drawn) [compound 945], the EC50 was found to be 5.4 nM.

In the case of `COc1ccc(-c2cc(C3=NOC(C(=O)O)C3)ccc2F)cc1C(=O)N[C@H]1[C@@H](C(=O)Nc2ccc(F)c(C(F)(F)F)c2)[C@H]2CC[C@@H]1/C2=C\C1CCCC1` (stereo partly drawn) [compound 946], the EC50 turned out to be 0.9 nM. Take `COc1ccc(-c2cc(C3=NOC(C(=O)O)C3)ccc2F)cc1C(=O)N[C@H]1[C@@H](C(=O)Nc2ccc(F)c(C(F)(F)F)c2)[C@H]2CC[C@@H]1/C2=C\C1CC1` (stereo partly drawn) [compound 947]: the EC50 is 8.6 nM.

As for `COc1ccc(-c2cc(C3=NOC(C(=O)O)C3)ccc2F)cc1C(=O)N[C@H]1[C@@H](C(=O)Nc2ccc(F)c(C(F)(F)F)c2)[C@H]2CC[C@@H]1/C2=C\C1CC1` (stereo partly drawn) [compound 948], the EC50 came to 8.6 nM. As to `COc1ccc(-c2cc(C3=NOC4CC(CO)CC34)ccc2F)cc1C(=O)N[C@H]1[C@@H](C(=O)Nc2ccc(F)c(C(F)(F)F)c2)[C@H]2CC[C@@H]1/C2=C\C1CCCC1` (stereo partly drawn) [compound 949], the EC50 came out at 3.6 nM. Regarding `COc1ccc(-c2cc(C3=NOC4CC(CO)CC34)ccc2F)cc1C(=O)N[C@H]1[C@@H](C(=O)Nc2ccc(F)c(C(F)(F)F)c2)[C@H]2CC[C@@H]1/C2=C\C1CCCC1` (stereo partly drawn) [compound 950], the EC50 was 4.9 nM. In the case of `COc1ccc(-c2cc(C3=NOC4CC(CO)CC34)ccc2F)cc1C(=O)N[C@H]1[C@@H](C(=O)Nc2ccc(F)c(C(F)(F)F)c2)[C@H]2CC[C@@H]1/C2=C\C1CCCC1` (stereo partly drawn) [compound 951], the EC50 is 1 nM.
